Laboratory results: US20150353495A1 (PORTOLA PHARMACEUTICALS, INC., priority 2010, published 2015)

Tests used:
Assay type in all cases: biochemical
JAK1 = target: T1, JAK1 (Homo sapiens, UniProt P23458); assay: Z'-LYTE kinase assay JAK1
T1 construct: 5 μl of catalytic domain recombinant Kinase enzyme+Tyr peptide substrate (Invitrogen, CA); purchased Invitrogen
Procedure: (§1) JAK and TYK2 tyrosine phosphorylation activity is measured using the Z′-LYTE™ Technology developed by Invitrogen Corporation (Carlsbad, Calif.). For JAK1, JAK2 and JAK3 the Z′-LYTE™ Kinase Assay Kit-Tyr6 Peptide (part number PV4122) was used. For TYK2 the Z′-LYTE™ Kinase Assay Kit-Tyr6 Peptide (part number PV3192) was used. The Z′-LYTE™ biochemical assay employs a fluorescence resonance energy transfer (FRET) coupled-enzyme format and is based on the differential sensitivity of phosphorylated and non-phosphorylated peptides to proteolitic cleavage. The assay uses a synthetic peptide substrate that is labelled with a donor fluorophore (coumarin) and an acceptor fluorophore (fluorescein) that make up a FRET pair. In the primary reaction (the Kinase Reaction), the kinase transfers the γ-phosphate of ATP to a single tyrosine residue on the substrate, while the presence of a kinase inhibitor in the primary reaction suppresses phosphorylation. In the secondary reaction (the Development Reaction), a site-specific protease (the Development Reagent) is added. The development buffer quenches the Kinase Reaction, while the protease recognizes and cleaves non-phosphorylated Z′-LYTE™ peptide substrate. Cleavage disrupts FRET between the donor and acceptor fluorophores on the non-phosphoryleted substrate, while uncleaved, phosphorylated substrate maintains FRET.
(§2) To test the ability of candidate molecules to inhibit JAK tyrosine phosphorylation activity, molecules are reconstituted in 100% DMSO and serially diluted 1:10 in polypropylene v-bottom microtiter plates. The candidate molecules are then diluted 1:25 into kinase buffer and 2.5 μl transferred into duplicate wells of a 384 well low volume black microtiter assay plate (Corning, USA). The final DMSO concentration in the assay is 1%. The kinase reaction contains 2.5 μl of a candidate molecule, 5 μl of catalytic domain recombinant Kinase enzyme+Tyr peptide substrate (Invitrogen, CA) and 2.5 μl ATP (Invitrogen, CA). The kinase reaction is allowed to procede for 1 hour at room temperature. The protease reaction is initiated by the addition of 5 μl Development Reagent (Invitrogen, CA). After 1 hour incubation at room temperature the fluorescence is measured using a FlexStation plate reader (Molecular Devices, Sunnyvale, Calif.).

JAK2 = target: T2, JAK2 (Homo sapiens, UniProt O60674); assay: Z'-LYTE kinase assay JAK2
T2 construct: 5 μl of catalytic domain recombinant Kinase enzyme+Tyr peptide substrate (Invitrogen, CA); purchased Invitrogen
Procedure: as §1, §2

JAK3 = target: T3, JAK3 (Homo sapiens, UniProt P52333); assay: Z'-LYTE kinase assay JAK3
T3 construct: 5 μl of catalytic domain recombinant Kinase enzyme+Tyr peptide substrate (Invitrogen, CA); purchased Invitrogen
Procedure: as §1, §2

T3 sequence (P52333 822-1111 limits assumed): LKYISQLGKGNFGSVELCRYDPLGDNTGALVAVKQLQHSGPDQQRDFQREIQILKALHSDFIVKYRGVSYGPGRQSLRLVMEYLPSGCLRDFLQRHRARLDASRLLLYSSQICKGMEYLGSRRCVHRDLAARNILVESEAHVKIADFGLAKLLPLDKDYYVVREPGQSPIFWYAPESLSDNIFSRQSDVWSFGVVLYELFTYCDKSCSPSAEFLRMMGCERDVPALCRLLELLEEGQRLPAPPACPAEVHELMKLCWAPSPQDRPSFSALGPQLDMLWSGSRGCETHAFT
T1 sequence (P23458 875-1153 limits assumed): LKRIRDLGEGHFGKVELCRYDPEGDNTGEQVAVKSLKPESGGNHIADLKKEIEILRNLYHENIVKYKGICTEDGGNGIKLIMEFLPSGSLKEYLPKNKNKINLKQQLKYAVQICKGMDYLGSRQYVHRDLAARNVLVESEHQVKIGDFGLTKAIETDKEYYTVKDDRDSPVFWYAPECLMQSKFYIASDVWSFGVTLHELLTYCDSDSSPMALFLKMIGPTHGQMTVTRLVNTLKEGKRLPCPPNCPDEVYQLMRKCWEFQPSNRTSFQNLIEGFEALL
T2 sequence (O60674 849-1124 limits assumed): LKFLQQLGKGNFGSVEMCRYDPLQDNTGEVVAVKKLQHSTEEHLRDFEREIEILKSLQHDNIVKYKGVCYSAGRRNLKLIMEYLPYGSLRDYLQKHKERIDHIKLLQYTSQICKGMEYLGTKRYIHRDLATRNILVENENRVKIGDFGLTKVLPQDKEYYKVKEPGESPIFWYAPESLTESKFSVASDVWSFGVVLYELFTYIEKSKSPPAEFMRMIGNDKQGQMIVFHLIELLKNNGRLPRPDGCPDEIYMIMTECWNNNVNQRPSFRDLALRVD

| IC50 (JAK1) | IC50 (JAK2) | IC50 (JAK3) | SMILES |
| --- | --- | --- | --- |
| > 1000 nM | > 1000 nM | 10 to 100 nM | NC(=O)c1cnc(Nc2ccc3ncccc3c2)cc1NCc1ccccc1 [Example 86, 4-(benzylamino)-6-(quinolin-6-ylamino)nicotinamide] |
| 100 to 1000 nM | 10 to 100 nM | 1 to 10 nM | NC(=O)c1cnc(Nc2cccc(C3CCOCC3)c2)cc1NCc1cccc(F)c1F [Example 205, 4-(2,3-difluorobenzylamino)-6-(3-(tetrahydro-2H-pyran-4-yl)phenylamino)nicotinamide] |
| > 1000 nM | > 1000 nM | 10 to 100 nM | CS(=O)(=O)c1ccc(Nc2cc(NCc3cccc(-c4cccnc4)c3)c(C(N)=O)cn2)cc1 [Example 415] |
| 100 to 1000 nM | 100 to 1000 nM | 1 to 10 nM | CS(=O)(=O)Cc1ccc(Nc2cc(NCc3ccccc3)c(C(N)=O)cn2)cc1 [Example 347, 4-(benzylamino)-6-(4-(methylsulfonylmethyl)phenylamino)nicotinamide] |
| 100 to 1000 nM | 100 to 1000 nM | 1 to 10 nM | COCC(=O)N1CC(c2ccc(Nc3cc(NCc4ccccc4)c(C(N)=O)cn3)cc2)C1 [Example 336, 4-(benzylamino)-6-(4-(1-(2-methoxyacetyl)azetidin-3-yl)phenylamino)nicotinamide] |
| > 1000 nM | > 1000 nM | 10 to 100 nM | COc1ccc(Nc2cc(NCc3cccc4cc[nH]c34)c(C(N)=O)cn2)cc1 [Example 282, 4-((1H-indol-7-yl)methylamino)-6-(4-methoxyphenylamino)nicotinamide] |
| 100 to 1000 nM | 100 to 1000 nM | 10 to 100 nM | CCC(=O)N1CCC(c2ccc(Nc3cc(NCC4CCCC4)c(C(N)=O)cn3)cc2)CC1 [Example 176, 4-(cyclopentylmethylamino)-6-(4-(1-propionylpiperidin-4-yl)phenylamino)nicotinamide] |
| 100 to 1000 nM | 100 to 1000 nM | 10 to 100 nM | CN(C)S(=O)(=O)N(C)c1ccc(Nc2cc(NCc3ccccc3)c(C(N)=O)cn2)cc1 [Example 268, 4-(benzylamino)-6-(4-((N,N-dimethylsulfamoyl)(methyl)amino)phenylamino)nicotinamide] |
| > 1000 nM | > 1000 nM | 10 to 100 nM | NC(=O)c1cnc(Nc2ccc3ncsc3c2)cc1NCc1ccccc1 [Example 90, 6-(benzo[d]thiazol-6-ylamino)-4-(benzylamino)nicotinamide] |
| > 1000 nM | 100 to 1000 nM | 10 to 100 nM | CCC(=O)N(C)c1ccc(Nc2cc(NCc3cccc4cc[nH]c34)c(C(N)=O)cn2)cc1 [Example 477, 4-((1H-indol-7-yl)methylamino)-6-(4-(N-methylpropionamido)phenylamino)nicotinamide] |
| 100 to 1000 nM | 100 to 1000 nM | 10 to 100 nM | CN(C)C(=O)c1cc(Nc2cc(NCc3ccccc3)c(C(N)=O)cn2)ccc1N(C)C [Example 440, 4-(benzylamino)-6-(4-(dimethylamino)-3-(dimethylcarbamoyl)phenylamino)nicotinamide] |
| 100 to 1000 nM | 100 to 1000 nM | 100 to 1000 nM | NC(=O)c1cnc(Nc2ccc(C3CCOCC3)cc2)cc1NC1CCCC1 [Example 150, 4-(cyclopentylamino)-6-(4-(tetrahydro-2H-pyran-4-yl)phenylamino)nicotinamide] |
| > 1000 nM | 100 to 1000 nM | 10 to 100 nM | NC(=O)c1cnc(Nc2ccc(C3CCOCC3)cc2)cc1NCC1CCCC1 [Example 154, 4-(cyclopentylmethylamino)-6-(4-(tetrahydro-2H-pyran-4-yl)phenylamino)nicotinamide] |
| 100 to 1000 nM | 10 to 100 nM | 1 to 10 nM | NC(=O)c1cnc(Nc2ccc(C3CCN(CCF)CC3)cc2)cc1NCc1cccc(F)c1F [Example 217, 4-(2,3-difluorobenzylamino)-6-(4-(1-(2-fluoroethyl)piperidin-4-yl)phenylamino)nicotinamide] |
| > 1000 nM | > 1000 nM | 100 to 1000 nM | CCC(=O)N1CCC(c2ccc(Nc3cc(NCC4(c5ccccc5)CC4)c(C(N)=O)cn3)cc2)CC1 [Example 194, 4-((1-phenylcyclopropyl)methylamino)-6-(4-(1-propionylpiperidin-4-yl)phenylamino)nicotinamide] |
| > 1000 nM | > 1000 nM | 10 to 100 nM | COC(=O)N(C)c1ccc(Nc2cc(NCc3cccc4cc[nH]c34)c(C(N)=O)cn2)cc1 [Example 482, methyl 4-(4-((1H-indol-7-yl)methylamino)-5-carbamoylpyridin-2-ylamino)phenyl(methyl)carbamate] |
| 100 to 1000 nM | 100 to 1000 nM | 1 to 10 nM | NC(=O)c1cnc(Nc2ccc(CC(=O)NCC(F)(F)F)cc2)cc1NCc1ccccc1 [Example 341, 4-(benzylamino)-6-(4-(2-oxo-2-(2,2,2-trifluoroethylamino)ethyl)phenylamino)nicotinamide] |
| 100 to 1000 nM | 100 to 1000 nM | 10 to 100 nM | COc1ccc(Nc2cc(NCc3cccc(F)n3)c(C(N)=O)cn2)cc1 [Example 315, 4-((6-fluoropyridin-2-yl)methylamino)-6-(4-methoxyphenylamino)nicotinamide] |
| > 1000 nM | > 1000 nM | 10 to 100 nM | N#Cc1ccc(Nc2cc(NCc3cncc(F)c3)c(C(N)=O)cn2)cc1 [Example 308, 6-(4-cyanophenylamino)-4-((5-fluoropyridin-3-yl)methylamino)nicotinamide] |
| 100 to 1000 nM | 10 to 100 nM | 1 to 10 nM | CCC(=O)N1CCC(c2ccc(Nc3cc(NCc4c(F)cccc4F)c(C(N)=O)cn3)cc2)CC1 [Example 203, 4-(2,6-difluorobenzylamino)-6-(4-(1-propionylpiperidin-4-yl)phenylamino)nicotinamide] |
| 1 to 10 nM | 1 to 10 nM | < 1 nM | COCC(=O)N1CC(c2ccc(Nc3cc(NCc4cccc5[nH]ccc45)c(C(N)=O)cn3)cc2)C1 [Example 494, 4-((1H-indol-4-yl)methylamino)-6-(4-(1-(2-methoxyacetyl)azetidin-3-yl)phenylamino)nicotinamide] |
| 100 to 1000 nM | 10 to 100 nM | 1 to 10 nM | CCC(=O)N1CC(c2ccc(Nc3cc(NCc4cccc5ccsc45)c(C(N)=O)cn3)cc2)C1 [Example 491, 4-(benzo[b]thiophen-7-ylmethylamino)-6-(4-(1-propionylazetidin-3-yl)phenylamino)nicotinamide] |
| 10 to 100 nM | 10 to 100 nM | 1 to 10 nM | CCC(=O)N1CCC(c2ccc(Nc3cc(NCc4cccc5[nH]ncc45)c(C(N)=O)cn3)cc2)CC1 [Example 210, 4-((1H-indazol-4-yl)methylamino)-6-(4-(1-propionylpiperidin-4-yl)phenylamino)nicotinamide] |
| 100 to 1000 nM | 10 to 100 nM | 1 to 10 nM | N#CCN1CCC(c2ccc(Nc3cc(NCc4cc(F)ccc4F)c(C(N)=O)cn3)cc2)CC1 [Example 218, 6-(4-(1-(cyanomethyl)piperidin-4-yl)phenylamino)-4-(2,5-difluorobenzylamino)nicotinamide] |
| > 1000 nM | > 1000 nM | 100 to 1000 nM | CS(=O)(=O)N1CCC(CNc2cc(Nc3ccc(C4CCOCC4)cc3)ncc2C(N)=O)CC1 [Example 159, 4-((1-(methylsulfonyl)piperidin-4-yl)methylamino)-6-(4-(tetrahydro-2H-pyran-4-yl)phenylamino)nicotinamide] |
| > 1000 nM | > 1000 nM | > 1000 nM | CN(C)C(=O)c1ccc(Nc2cc(NCc3ccccc3)c(C(=O)N(C)C)cn2)cc1 [Example 30, 4-(benzylamino)-6-(4-(dimethylcarbamoyl)phenylamino)-N,N-dimethylnicotinamide] |
| 100 to 1000 nM | 100 to 1000 nM | 10 to 100 nM | Cn1ccnc1CNc1cc(Nc2ccc(C3CCOCC3)cc2)ncc1C(N)=O [Example 183, 4-((1-methyl-1H-imidazol-2-yl)methylamino)-6-(4-(tetrahydro-2H-pyran-4-yl)phenylamino)nicotinamide] |
| 100 to 1000 nM | 100 to 1000 nM | 10 to 100 nM | CS(=O)(=O)N1CC(c2ccc(Nc3cc(NCc4ccccc4)c(C(N)=O)cn3)cc2)C1 [Example 335, 4-(benzylamino)-6-(4-(1-(methylsulfonyl)azetidin-3-yl)phenylamino)nicotinamide] |
| > 1000 nM | > 1000 nM | > 1000 nM | CC(=O)N1CCC(CNc2cc(Nc3ccc(C(=O)N4CCOCC4)cc3)ncc2C(N)=O)CC1 [Example 44, 4-((1-acetylpiperidin-4-yl)methylamino)-6-(4-(morpholine-4-carbonyl)phenylamino)nicotinamide] |
